Reference: patent US8080644B2, “Oligonucleotide analogues” (Exiqon A/S, priority 1997, dated 2011)
l = locked nucleic acid (LNA); d = 2'-deoxy (DNA)

Tests used:
[1] = system: Nras amplicons (Nras 910, Nras 600, Nras 200); test: Capture of Nras PCR amplicons by immobilised probes; assay type: binding, human; details: native amplicons; 1 pmol probe per well
Experimental: Three DIG labelled amplicons from Nras sequence (ref.: Nucleic Acid Research, 1985, Vol. 13, No. 14, p 52-55) were generated by PCR amplification as follows:
PCR reaction mixture for Nras amplicons: 2.3 μl human placental genomic DNA (440 ng/μl), 50 μl 10×PCR buffer (without MgCl2 Perkin Elmer), 30 μl 25 mM MgCl2, 50 μl dNTP-mix (2 mM dATP, dCTP, dGTP and 1.8 mM dTTP), 10 μl 1 mM Dig-11-dUTP, 10 μl 25 μM forward primer, 10 μl 25 μM reverse primer, 5 μl 5 U/μl AmpliTaq Gold (Perkin Elmer) and water ad 500 μl. PCR reaction: The above mixture was made for all the Nras PCR products. The only difference being reverse primer 910 bp, 600 bp or 200 bp added once at a time. The PCR mixtures were aliquoted into ten PCR tubes each and cycled in a Perkin Elmer 9600 at the following conditions: 95° C. 3 min; 55° C. 2 min, 72° C. 3 min, 95° C. 1 min (30 cycles); 55° C. 2 min, 72° C. 10 min and 4° C. soak. 10 μl from each PCR reaction was analysed on a standard agarose gel and the expected fragments of approximately 910 bp, 600 bp and 200 bp were observed. Assay conditions: Wells of a streptavidin coated micro-titer plate (Boehringer Mannheim; binding capacity of 20 pmol biotin per well) were incubated for 1 hour in 5×SSCT (0.75 M NaCl, 75 mM citrate, pH 7.0, 0.1% Tween 20) at 37° C. with either 1 pmol of DNA Nras Cap A (biotin-5′-TTCCACAGCACAA-3′) (SEQ ID NO:37), LNA/DNA Nras Cap A (biotin-5′-TTCCACAGCACAA-3′) (SEQ ID NO:38), LNA Nras Cap A (biotin-5′-TTCCACAGCACAA-3′) (SEQ ID NO:39), DNA Nras Cap B (biotin-5′-AGAGCCGATAACA-3′) (SEQ ID NO:40), LNA/DNA Nras Cap B (biotin-5′-AGAGCCGATAACA-3′) (SEQ ID NO:41) or LNA Nras Cap B (biotin-5′-AGAGCCGATAACA-3′) (SEQ ID NO:42); LNA nucleosides in bold. The Nras Cap A capture probes capture amplicons Nras 910, Nras 600 and Nras 200. Nras Cap B capture probes capture specific amplicons Nras 910 and Nras 600. After incubation with the different capture probes, the wells were washed in 5×SSCT and 5 μl native or denatured (95° C. 5 min and 10 min on ice) DIG-labelled amplicons (Nras 910, Nras 600 or Nras 200) in 95 μl 1×SSCT (0.15 M NaCl, 15 mM citrate, pH 7.0, 0.1% Tween 20) were added per well and incubated for 1 hour at 37° C. The wells were washed three times in phosphate buffered saline (1×PBST, 0.15 M Nat, pH 7.2, 0.05% Tween 20) and incubated 30 min at 37° C. with 200 μl peroxidase labelled anti-DIG antibodies (Boehringer Mannheim, diluted 1:1000 in 1×PBST). Finally the wells were washed three times in 1×PBST and assayed for peroxidase activity by adding 100 μl of substrate solution (0.1 M citrate-phosphate buffer pH 5.0, 0.66 mg/ml ortho-phenylenediamine dihydrochloride, 0.012% H2O2) the reaction was stopped after 9 min by adding 100 μl 0.5 M H2SO4 and diluted 4 times in H2SO4 before the absorbance at 492 nm was read in a micro-titer plate reader. […] We conclude that LNA modified oligos containing mixed LNA nucleosides (A, T, G or C LNA nucleosides) function efficiently in sequence specific capture of PCR amplicons when immobilised on a solid surface. We further conclude that LNA offers a means to construct capture probes that will function efficiently in amplicon capture without prior denaturation i.e. capture by strand displacement. This ability facilitates a significant simplification of current amplicon detection formats based on DNA.

[2] = molecular target: exonuclease free Klenow fragment DNA polymerase I (EFK) (Escherichia coli, UniProt P00582, D355A/E357A); details: 500 μM LNA NTP, 2 units EFK, 37° C., 3 min
Experimental: A primer extension assay was used to evaluate the LNA NTP's (see Example 123), ribonucleotides, as substrates for exonuclease free Klenow fragment DNA polymerase I (EFK). The assay used a ^33P 5′ end labelled 15mer primer hybridised to one of four different 24mer templates. The sequences of the primer and templates are (LNA monomer in bold):
One picomole ^33P labelled primer was hybridised to 2 picomoles of template in ×2 Klenow buffer. To this was added either 4 μM dNTPαS or 500 μM LNA NTP or a mixture of 4 μM dNTPαS and 500 μM LNA NTP. Two units of EFK DNA polymerase was added to each reaction. 2 mU inorganic pyrophosphatase was added to each of the reactions. Primer plus template plus enzyme controls were also carried out. All reactions were carried out in a total volume of 20 μl. The reactions were incubated at 37° C. for 3 min. Reactions were then stopped by the addition of 10 μl formamide EDTA stop solution. Reaction products were separated on a 19% polyacrylamide 7M urea gel and the product fragments sized by comparison with a ^33P labelled 8 to 32 base oligonucleotide ladder after exposure to Kodak Biomax autoradiography film.

[3] = system: terminal deoxynucleotidyl transferase (TdT); test: Tailing of primers with dATP; assay type: biochemical; details: 4 pmol primer, 25 U TdT, 16 μM dATP, 90 min, 37° C.
Experimental: The ability of terminal deoxynucleotidyl transferase (TdT) to tail LNA modified oligonucleotides depends on the design of the oligomer. The following 15mer primers and a mixture of 8 to 32 base oligonucleotide markers were 5′ end labelled with [γ^33P] ATP and T4 polynucleotide kinase (where LNA monomers are in bold):
Reactions were boiled for 5 min after labelling to remove any PNK activity. Four picomoles of each labelled primer, 25 U terminal deoxynucleotidyl transferase and 16 μM dATP were incubated in 25 μl 100 mM cacodylate buffer pH 7.2, 2 mM CoCl2 and 0.2 mM 2-mercapto-ethanol for 90 min at 37° C. The reactions were stopped by the addition of formamide stop solution and the reaction products run on a 19% polyacrylamide 7 M urea gel with the labelled markers. Autoradiography using Biomax film was carried out on the dry gel. […] Primer PZ2 (lane 5) was not extended under these reaction conditions. We conclude that the TdT enzyme will tolerate LNA monomers within the oligonucleotide, but not at the extreme 3′ end.

[4] = molecular target: Exonuclease III (Escherichia coli, UniProt P09030); details: for full length product left after the 5 minute incubation: 10 Units Exonuclease III, 37° C., 5 min, primer hybridised to template; for full length band, % of the signal: in the absence of the enzyme
[5] = system: MCF-7 human breast cancer cells
[6] = molecular target: terminal deoxynucleotidyl transferase (TdT) (Bos taurus, UniProt P06526); test: Oligonucleotide tailing reaction with triphosphate as substrate; assay type: biochemical; details: 15mer primer, 25 U TdT, 32, 64 or 128 μM triphosphate, 90 min, 37° C.
Experimental: LNA-thymidine-5'-triphosphate (LNA-TTP) as a substrate for terminal deoxynucleotidyl transferase (TdT). In order to test the ability of the triphosphate of LNA-TTP (Example 123) to be accepted by terminal deoxynucleotidyl transferase as a substrate, an oligonucleotide tailing reaction was performed. A 15mer primer (sequence: [NT] ID NO:14) and a mixture of 8 to 32 base oligonucleotide markers were 5' end labelled with [γ^33P] ATP and T4 polynucleotide kinase. Reactions were boiled for 5 min after labelling to remove any PNK activity. Four picomoles of the labelled primer, 25 U terminal deoxynucleotidyl transferase and 32, 64 or 128 μM dTTP or LNA-TTP were incubated in 25 μl 100 mM cacodylate buffer pH 7.2, 2 mM CoCl2 and 0.2 mM 2-mercaptoethanol for 90 min at 37° C. […] Autoradiography using Biomax film was carried out on the dry gel.

LNA/DNA Nras Cap B: biotin-5′-AGAGCCGATAACA-3′ (SEQ ID NO:41), spiked with 4 LNA nucleosides (LNA nucleosides spiked in, positions not given here, 5' biotin)
capture of specific amplicons without prior denaturation [1]: capture the same amplicons with a lower efficiency

LNA Cap B: biotin-5′-AGAGCCGATAACA-3′ (SEQ ID NO:42), spiked with 12 LNA nucleosides (12 LNA nucleosides, positions not given here, 5' biotin)
capture of specific amplicons without prior denaturation [1]: capture very efficiently the specific amplicons without prior denaturation

Nc1ncnc2c1ncn2[C@@H]1O[C@@]2(COP(=O)(O)OP(=O)(O)OP(=O)(O)O)CO[C@@H]1[C@@H]2O [LNA ATP]
incorporation into a DNA strand [2]: efficiently incorporated to give the +1 product

LNA Nras Cap A: biotin-5′-TTCCACAGCACAA-3′ (SEQ ID NO:39), spiked with 12 LNA nucleosides (LNA nucleosides spiked in, positions not given here, 5' biotin)
capture of specific amplicons without prior denaturation [1]: capture very efficiently the specific amplicons without prior denaturation

PZ2: 5′-GC ATG TGC TGG AGA T-3′ (SEQ ID NO: 13), single LNA monomer at the 3′ end (DNA GCATGTGCTGGAGAT; sugars from the 5' end d14 l1, backbone and methylation of C not given here)
tail length [3]: not extended
full length product left after the 5 minute incubation [4]: 62%
full length band, % of the signal [4]: 96%

ODN#10: oligodeoxynucleotide (SEQ ID NO:56), a 35-mer complementary to human Cathepsin D (DNA TTAACGTAGGTGCTGGACTTGTCGCTGTTGTACTT; DNA, backbone and methylation of C not given here) [reference compound]
added radioactivity associated with cellular material [5]: approximately 1.4%

Cc1cn([C@H]2C[C@H](O)[C@@H](COP(=O)(O)OP(=O)(O)OP(=O)(O)O)O2)c(=O)[nH]c1=O [dTTP, reference compound]
primer extension product [6]: greater than 100 nucleotides

P2: 5′-GC ATG TGC TGG AGA T-3′ (SEQ ID NO: 11), DNA primer (DNA GCATGTGCTGGAGAT; DNA, backbone and methylation of C not given here) [reference compound]
full length product left after the 5 minute incubation [4]: 20%
full length band, % of the signal [4]: 99%

Nc1ccn([C@@H]2O[C@@]3(COP(=O)(O)OP(=O)(O)OP(=O)(O)O)CO[C@@H]2[C@@H]3O)c(=O)n1 [LNA CTP]
incorporation into a DNA strand [2]: efficiently incorporated to give the +1 product on Template 4

DNA Nras Cap B: biotin-5′-AGAGCCGATAACA-3′ (SEQ ID NO:40), DNA capture probe (DNA, 5' {Biotin}, backbone not given here) [reference compound]
capture of specific amplicons without prior denaturation [1]: do not capture the specific amplicons at all

O=c1ccn([C@@H]2O[C@@]3(COP(=O)(O)OP(=O)(O)OP(=O)(O)O)CO[C@@H]2[C@@H]3O)c(=O)[nH]1 [LNA UTP]
incorporation into a DNA strand [2]: specifically incorporated as a “T”

AL17: LNA oligo 5′-d(ATA AAG TGT AAA G)-3′ (SEQ ID NO:58); also fluorescein/FITC-labelled (DNA ATAAAGTGTAAAG; LNA-containing, positions not given here, fluorescein label)
added radioactivity associated with cellular material [5]: approximately 0.4%

DNA Nras Cap A: biotin-5′-TTCCACAGCACAA-3′ (SEQ ID NO:37), DNA capture probe (DNA, 5' {Biotin}, backbone not given here) [reference compound]
capture of specific amplicons without prior denaturation [1]: do not capture the specific amplicons at all

Cc1cn(C2OC3(COP(=O)(O)OP(=O)(O)OP(=O)(O)O)COC2C3O)c(=O)[nH]c1=O (stereo not shown) [LNA-TTP, LNA-thymidine-5′-triphosphate]
fraction of +1 product extended by a further base [6]: ~50%
primer extension product [6]: extended by one base

Nc1nc2c(ncn2[C@@H]2O[C@@]3(COP(=O)(O)OP(=O)(O)OP(=O)(O)O)CO[C@@H]2[C@@H]3O)c(=O)[nH]1 [LNA GTP]
incorporation into a DNA strand [2]: able to produce the +1 product with efficient extension of the primer
